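Values below derive from 48-hour exposures of cells grown in 96-well plates, with endpoints linearly interpolated between the two concentrations bracketing the appropriate inhibition level. Here, GI50 denotes the concentration required for 50% inhibition of growth.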 The source made the active and inactive calls. No stated cut-off is given here; in the data, active = GI50 up to about 1.1 µM and inactive = higher.
What was measured:
Assay in all cases: NCI anticancer screen, dose series, 48 h
786-0 = test system: 786-0
A498 = test system: A498
A549 = test system: A549
ACHN = test system: ACHN
BT-549 = test system: BT-549
CAKI-1 = test system: CAKI-1
CCRF-CEM = test system: CCRF-CEM
COLO 205 = test system: COLO 205
DU-145 = test system: DU-145
EKVX = test system: EKVX
HCC 2998 = test system: HCC 2998
HCT-116 = test system: HCT-116
HCT-15 = test system: HCT-15
HL-60 = test system: HL-60
HOP-62 = test system: HOP-62
HOP-92 = test system: HOP-92
HT-29 = test system: HT-29
Hs-578T = test system: Hs-578T
IGROV-1 = test system: IGROV-1
K562 = test system: K562
KM12 = test system: KM12
LOX IMVI = test system: LOX IMVI
M14 = test system: M14
MCF7 = test system: MCF7
MDA-MB-231 = test system: MDA-MB-231
MDA-MB-435 = test system: MDA-MB-435
MDA-N = test system: MDA-N
MOLT-4 = test system: MOLT-4
Malme-3M = test system: Malme-3M
NCI-H226 = test system: NCI-H226
NCI-H23 = test system: NCI-H23
NCI-H460 = test system: NCI-H460
NCI-H522 = test system: NCI-H522
NCI/ADR-RES = test system: NCI/ADR-RES
OVCAR-3 = test system: OVCAR-3
OVCAR-4 = test system: OVCAR-4
OVCAR-5 = test system: OVCAR-5
OVCAR-8 = test system: OVCAR-8
PC-3 = test system: PC-3
RPMI-8226 = test system: RPMI-8226
RXF 393 = test system: RXF 393
SF-268 = test system: SF-268
SF-295 = test system: SF-295
SF-539 = test system: SF-539
SK-MEL-28 = test system: SK-MEL-28
SK-MEL-2 = test system: SK-MEL-2
SK-MEL-5 = test system: SK-MEL-5
SK-OV-3 = test system: SK-OV-3
SN12C = test system: SN12C
SNB-19 = test system: SNB-19
SNB-75 = test system: SNB-75
SR = test system: SR
SW-620 = test system: SW-620
T47D = test system: T47D
TK-10 = test system: TK-10
U-251 = test system: U-251
UACC-257 = test system: UACC-257
UACC-62 = test system: UACC-62
UO-31 = test system: UO-31

CC(=O)C(CN1CCCCC1)C(c1ccccc1)c1c(O)c2ccccc2oc1=O (configuration not stated)
GI50 (786-0): > 100 µM (inactive)
GI50 (A498): > 100 µM (inactive)
GI50 (A549): > 100 µM (inactive)
GI50 (ACHN): > 100 µM (inactive)
GI50 (BT-549): > 100 µM (inactive)
GI50 (CAKI-1): > 100 µM (inactive)
GI50 (CCRF-CEM): > 100 µM (inactive)
GI50 (COLO 205): > 100 µM (inactive)
GI50 (DU-145): > 100 µM (inactive)
GI50 (EKVX): > 100 µM (inactive)
GI50 (HCC 2998): > 100 µM (inactive)
GI50 (HCT-116): > 100 µM (inactive)
GI50 (HCT-15): > 100 µM
GI50 (HL-60): 59.4 µM (inactive)
GI50 (HOP-62): > 100 µM (inactive)
GI50 (HOP-92): 41 µM (inactive)
GI50 (HT-29): > 100 µM (inactive)
GI50 (Hs-578T): > 100 µM (inactive)
GI50 (IGROV-1): > 100 µM (inactive)
GI50 (K562): > 100 µM (inactive)
GI50 (KM12): > 100 µM (inactive)
GI50 (LOX IMVI): > 100 µM (inactive)
GI50 (M14): > 100 µM (inactive)
GI50 (MCF7): > 100 µM (inactive)
GI50 (MDA-MB-231): > 100 µM (inactive)
GI50 (MDA-MB-435): > 100 µM (inactive)
GI50 (MDA-N): > 100 µM (inactive)
GI50 (MOLT-4): > 100 µM (inactive)
GI50 (Malme-3M): > 100 µM (inactive)
GI50 (NCI-H226): > 100 µM (inactive)
GI50 (NCI-H23): > 100 µM (inactive)
GI50 (NCI-H460): > 100 µM (inactive)
GI50 (NCI-H522): > 100 µM (inactive)
GI50 (NCI/ADR-RES): > 100 µM (inactive)
GI50 (OVCAR-3): > 100 µM (inactive)
GI50 (OVCAR-4): > 100 µM (inactive)
GI50 (OVCAR-5): > 100 µM (inactive)
GI50 (OVCAR-8): > 100 µM (inactive)
GI50 (PC-3): > 100 µM (inactive)
GI50 (RPMI-8226): > 100 µM (inactive)
GI50 (RXF 393): > 100 µM (inactive)
GI50 (SF-268): > 100 µM (inactive)
GI50 (SF-295): > 100 µM (inactive)
GI50 (SF-539): > 100 µM (inactive)
GI50 (SK-MEL-28): > 100 µM (inactive)
GI50 (SK-MEL-2): > 100 µM (inactive)
GI50 (SK-MEL-5): > 100 µM (inactive)
GI50 (SK-OV-3): > 100 µM (inactive)
GI50 (SN12C): > 100 µM (inactive)
GI50 (SNB-19): > 100 µM (inactive)
GI50 (SNB-75): > 100 µM (inactive)
GI50 (SR): > 100 µM (inactive)
GI50 (SW-620): > 100 µM (inactive)
GI50 (T47D): > 100 µM (inactive)
GI50 (TK-10): > 100 µM (inactive)
GI50 (U-251): > 100 µM (inactive)
GI50 (UACC-257): > 100 µM (inactive)
GI50 (UACC-62): > 100 µM (inactive)
GI50 (UO-31): > 100 µM (inactive)

CC(C)OC(=O)c1ccc(CCC2=CC(=O)C(Br)=CC2=O)cc1
GI50 (786-0): 16.5 µM (inactive)
GI50 (A498): 35.9 µM (inactive)
GI50 (A549): 34.7 µM (inactive)
GI50 (ACHN): 14.5 µM (inactive)
GI50 (BT-549): 5.27 µM (inactive)
GI50 (CAKI-1): 20.6 µM (inactive)
GI50 (CCRF-CEM): 0.783 µM (active)
GI50 (COLO 205): 11.9 µM (inactive)
GI50 (DU-145): 23.7 µM (inactive)
GI50 (EKVX): 16.3 µM (inactive)
GI50 (HCC 2998): 16.9 µM (inactive)
GI50 (HCT-116): 16.7 µM (inactive)
GI50 (HCT-15): 15.4 µM
GI50 (HL-60): 2.16 µM (inactive)
GI50 (HOP-62): 29.6 µM (inactive)
GI50 (HOP-92): 12.4 µM (inactive)
GI50 (HT-29): 16.8 µM (inactive)
GI50 (Hs-578T): 15.7 µM (inactive)
GI50 (IGROV-1): 14.4 µM (inactive)
GI50 (K562): 2.84 µM (inactive)
GI50 (KM12): 13 µM (inactive)
GI50 (LOX IMVI): 15.9 µM (inactive)
GI50 (M14): 16.4 µM (inactive)
GI50 (MCF7): 17.7 µM (inactive)
GI50 (MDA-MB-231): 17.2 µM (inactive)
GI50 (MDA-MB-435): 16.9 µM (inactive)
GI50 (MDA-N): 16.4 µM (inactive)
GI50 (MOLT-4): 3.09 µM (inactive)
GI50 (Malme-3M): 15.7 µM (inactive)
GI50 (NCI-H226): 19.8 µM (inactive)
GI50 (NCI-H23): 13.2 µM (inactive)
GI50 (NCI-H460): 20.7 µM (inactive)
GI50 (NCI-H522): 5.56 µM (inactive)
GI50 (NCI/ADR-RES): 14.5 µM (inactive)
GI50 (OVCAR-3): 14.8 µM (inactive)
GI50 (OVCAR-4): 5.75 µM (inactive)
GI50 (OVCAR-5): 22.1 µM (inactive)
GI50 (OVCAR-8): 15.3 µM (inactive)
GI50 (PC-3): 17 µM (inactive)
GI50 (RPMI-8226): 7.26 µM (inactive)
GI50 (RXF 393): 17.1 µM (inactive)
GI50 (SF-268): 16 µM (inactive)
GI50 (SF-295): 19.9 µM (inactive)
GI50 (SF-539): 19.2 µM (inactive)
GI50 (SK-MEL-28): 18.2 µM (inactive)
GI50 (SK-MEL-2): 15.6 µM (inactive)
GI50 (SK-MEL-5): 12.8 µM (inactive)
GI50 (SK-OV-3): 40.6 µM (inactive)
GI50 (SN12C): 16.9 µM (inactive)
GI50 (SNB-19): 15.3 µM (inactive)
GI50 (SNB-75): 16.1 µM (inactive)
GI50 (SR): 3.82 µM (inactive)
GI50 (SW-620): 15.5 µM (inactive)
GI50 (T47D): 19.6 µM (inactive)
GI50 (TK-10): 19.7 µM (inactive)
GI50 (U-251): 15.6 µM (inactive)
GI50 (UACC-257): 13.2 µM (inactive)
GI50 (UACC-62): 17.5 µM (inactive)
GI50 (UO-31): 13.8 µM (inactive)

COc1ccc(C(=O)/C=C/c2ccc(O)c(O)c2)c(OC)c1
GI50 (786-0): 5.21 µM (inactive)
GI50 (A498): 4.5 µM (inactive)
GI50 (A549): 14 µM (inactive)
GI50 (ACHN): 10.9 µM (inactive)
GI50 (BT-549): 3.26 µM (inactive)
GI50 (CAKI-1): 6.27 µM (inactive)
GI50 (CCRF-CEM): 0.508 µM (active)
GI50 (COLO 205): 15.1 µM (inactive)
GI50 (DU-145): 3.16 µM (inactive)
GI50 (EKVX): 11.8 µM (inactive)
GI50 (HCC 2998): 1.21 µM (inactive)
GI50 (HCT-116): 0.638 µM (active)
GI50 (HCT-15): 0.292 µM
GI50 (HL-60): 0.377 µM (active)
GI50 (HOP-62): 4.32 µM (inactive)
GI50 (HOP-92): 28.8 µM (inactive)
GI50 (HT-29): 7.76 µM (inactive)
GI50 (Hs-578T): 2.19 µM (inactive)
GI50 (IGROV-1): 0.887 µM (active)
GI50 (K562): 0.442 µM (active)
GI50 (KM12): 1.01 µM (active)
GI50 (LOX IMVI): 3.58 µM (inactive)
GI50 (M14): 3.99 µM (inactive)
GI50 (MCF7): 0.301 µM (active)
GI50 (MDA-MB-231): 2.71 µM (inactive)
GI50 (MDA-MB-435): 0.47 µM (active)
GI50 (MDA-N): 0.454 µM (active)
GI50 (MOLT-4): 2.79 µM (inactive)
GI50 (Malme-3M): 4.65 µM (inactive)
GI50 (NCI-H226): 6.64 µM (inactive)
GI50 (NCI-H23): 2.31 µM (inactive)
GI50 (NCI-H460): 3.04 µM (inactive)
GI50 (NCI-H522): 0.245 µM (active)
GI50 (NCI/ADR-RES): 2.75 µM (inactive)
GI50 (OVCAR-3): 0.242 µM (active)
GI50 (OVCAR-4): 12.4 µM (inactive)
GI50 (OVCAR-5): 15.6 µM (inactive)
GI50 (OVCAR-8): 10.8 µM (inactive)
GI50 (PC-3): 4.8 µM (inactive)
GI50 (RPMI-8226): 0.7 µM (active)
GI50 (RXF 393): 8.18 µM (inactive)
GI50 (SF-268): 1.4 µM (inactive)
GI50 (SF-295): 3.66 µM (inactive)
GI50 (SF-539): 0.834 µM (active)
GI50 (SK-MEL-28): 7.6 µM (inactive)
GI50 (SK-MEL-2): 2.77 µM (inactive)
GI50 (SK-MEL-5): 1.85 µM (inactive)
GI50 (SK-OV-3): 5.15 µM (inactive)
GI50 (SN12C): 1.22 µM (inactive)
GI50 (SNB-19): 2.96 µM (inactive)
GI50 (SNB-75): 1.91 µM (inactive)
GI50 (SR): 0.337 µM (active)
GI50 (SW-620): 1.22 µM (inactive)
GI50 (T47D): 1.55 µM (inactive)
GI50 (TK-10): 6.14 µM (inactive)
GI50 (U-251): 1.7 µM (inactive)
GI50 (UACC-257): 3.87 µM (inactive)
GI50 (UACC-62): 2.98 µM (inactive)
GI50 (UO-31): 9.33 µM (inactive)
